The text below walks through data of patent US8372857B2, “Substituted 4-hydroxypyrimidine-5-carboxamides” (Merck Sharp & Dohme Corp., priority 2009, dated 2013).

A word on the IC50: it is the concentration at which inhibition is half-maximal. In general, MRT refers to a mean duration of stay, worked out from the concentration-time curve. What is called clearance is the volume of plasma or blood freed of the substance per unit of time. Low readings indicate inefficient removal, high ones efficient removal.

In one data set the target is T1, CYP2C8 (Homo sapiens, UniProt P10632).
T1 sequence (P10632 1-490): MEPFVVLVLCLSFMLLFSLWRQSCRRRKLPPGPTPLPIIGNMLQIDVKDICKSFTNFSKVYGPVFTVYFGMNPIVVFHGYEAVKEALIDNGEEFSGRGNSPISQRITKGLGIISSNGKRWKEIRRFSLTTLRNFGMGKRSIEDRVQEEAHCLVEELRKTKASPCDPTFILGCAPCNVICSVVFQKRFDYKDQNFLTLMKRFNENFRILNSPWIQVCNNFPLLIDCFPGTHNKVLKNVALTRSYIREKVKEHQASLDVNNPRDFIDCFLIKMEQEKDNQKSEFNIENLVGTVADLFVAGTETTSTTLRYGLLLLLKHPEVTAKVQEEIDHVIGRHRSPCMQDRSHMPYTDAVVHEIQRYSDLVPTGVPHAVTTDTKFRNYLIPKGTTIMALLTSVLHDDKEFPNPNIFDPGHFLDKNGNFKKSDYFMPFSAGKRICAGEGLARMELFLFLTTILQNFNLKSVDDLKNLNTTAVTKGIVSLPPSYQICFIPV
The experiment in a line: Cytochrome P450 inhibition, CYP2C8. The class given is in vitro ADME. The protocol:
(§1) The compounds of Example 1 and also Example 187 of PCT/US09/036,501 were tested for their activity at the cytochrome P450 enzymes CYP3A4 and CYP2C8. Utilizing procedures similar to that described by Walasky et al. and the references therein, the following human IC50 values were determined (Walsky, R. L.; Obach, R. S. Drug Metab. Dispos. 2004, 32, 647-660.)

Another data set addresses CYP3A4 (Homo sapiens, UniProt P08684). Nature of the data set: Cytochrome P450 inhibition, CYP3A4. The class given is in vitro ADME. The protocol: as §1
Data set [1] is described as follows: Pharmacokinetics after intravenous dosing in dogs (plasma concentration by LC-MS/MS). The class given is in vivo. The following applies: beagle, dog, dogs (beagles), 0.5 mg/kg intravenous. The protocol:
The pharmacokinetics and cytochrome P450 activity of Example 1 (E-1) were evaluated, and compared to that of Example 187 disclosed in International PCT application PCT/US09/036,501, filed Mar. 9, 2009. Compounds were formulated in a 1:1 solution (by volume) of PEG200: water and dosed at 0.5 mg/kg of body weight. The formulation was dosed intravenously in 2 dogs (beagles), and blood was drawn at the following time points (hours) 0.08, 0.25, 0.5, 1, 2, 4, 6, 8, 24. The plasma concentrations shown in the table below were determined by protein precipitation followed by liquid chromatography—tandem mass spectrometry analysis.

The target of another data set is T2, PHD2 (Homo sapiens, UniProt Q9GZT9).
T2 construct: FLAG-tagged full length PHD2 expressed in and purified from baculovirus-infected Sf9 cells; FLAG; made in house; host or cells: baculovirus-infected Sf9 cells
T2 sequence (Q9GZT9 whole entry): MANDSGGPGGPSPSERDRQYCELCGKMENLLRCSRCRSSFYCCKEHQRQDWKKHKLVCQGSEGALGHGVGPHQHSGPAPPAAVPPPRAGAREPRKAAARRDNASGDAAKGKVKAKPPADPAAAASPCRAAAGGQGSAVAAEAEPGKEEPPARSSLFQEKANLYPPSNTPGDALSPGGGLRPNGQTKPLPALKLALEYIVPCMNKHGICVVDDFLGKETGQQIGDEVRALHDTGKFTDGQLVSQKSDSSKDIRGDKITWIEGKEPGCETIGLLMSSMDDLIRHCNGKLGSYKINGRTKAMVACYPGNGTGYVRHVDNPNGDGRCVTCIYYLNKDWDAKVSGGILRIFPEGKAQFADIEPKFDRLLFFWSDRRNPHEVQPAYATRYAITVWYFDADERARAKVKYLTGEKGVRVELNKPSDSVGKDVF
Nature of the data set: PHD2 / HIF-1α peptide time resolved fluorescence assay. The class given is biochemical. The protocol: To each well of a 96-well plate was added 1 μL of test compound in DMSO and 20 μl of assay buffer (50 mM Tris pH 7.4/0.01% Tween-20/0.1 mg/ml bovine serum albumin/10 μM ferrous sulfate/1 mM sodium ascorbate/20 μg/ml catalase) containing 0.15 μg/ml FLAG-tagged full length PHD2 expressed in and purified from baculovirus-infected Sf9 cells. After a 30 min preincubation at room temperature, the enzymatic reactions were initiated by the addition of 4 μL of substrates (final concentrations of 0.2 μM 2-oxoglutarate and 0.5 μM HIF-1α peptide biotinyl-DLDLEMLAPYIPMDDDFQL). After 2 hr at room temperature, the reactions were terminated and signals were developed by the addition of a 25 μL quench/detection mix to a final concentration of 1 mM ortho-phenanthroline, 0.1 mM EDTA, 0.5 nM anti-(His)6 LANCE reagent (Perkin-Elmer Life Sciences), 100 nM AF647-labeled streptavidin (Invitrogen), and 2 μg/ml (His)-6-VIAL complex (S. Tan(2001) Protein Expr. Purif. 21, 224-234). The ratio of time resolved fluorescence signals at 665 and 620 nm was determined, and percent inhibition was calculated relative to an uninhibited control sample run in parallel.

A value given as a limit tells only on which side of the number the result lay.

CYP3A4, sequence (P08684 whole entry): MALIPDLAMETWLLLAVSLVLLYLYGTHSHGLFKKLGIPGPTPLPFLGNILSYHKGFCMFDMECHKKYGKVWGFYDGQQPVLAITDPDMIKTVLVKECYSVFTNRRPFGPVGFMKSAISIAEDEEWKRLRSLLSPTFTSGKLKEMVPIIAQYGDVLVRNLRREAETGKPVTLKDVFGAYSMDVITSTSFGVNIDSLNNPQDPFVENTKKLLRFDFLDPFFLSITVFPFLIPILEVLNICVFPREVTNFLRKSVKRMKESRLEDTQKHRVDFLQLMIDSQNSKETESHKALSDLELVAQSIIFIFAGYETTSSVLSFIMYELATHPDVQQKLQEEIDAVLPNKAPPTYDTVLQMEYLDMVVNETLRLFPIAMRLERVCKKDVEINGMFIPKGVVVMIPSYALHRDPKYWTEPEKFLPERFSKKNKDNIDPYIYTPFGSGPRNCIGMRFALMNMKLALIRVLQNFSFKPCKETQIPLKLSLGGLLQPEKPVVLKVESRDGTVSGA

For the compound `COc1ccc(-c2ccc(C(C)(C)NC(=O)c3cnc(-c4cccnn4)nc3O)cn2)cc1` [Example 1, 4-Hydroxy-N-{1-[6-(4-methoxyphenyl)pyridin-3-yl]-1-methylethyl}-2-pyridazin-3-ylpyrimidine-5-carboxamide], the IC50 at CYP2C8 is 49.5 µM; against CYP3A4 it was > 50 µM; on PHD2 (read-out: PHD2 binding activity expressed as IC50), ≤ 0.01 µM. Further, in data set [1], the MRT was found to be 6.57 h. The clearance in data set [1] amounted to 2.49 mL/min/kg. In addition, the concentration at 0.08 h in data set [1] (0.08 hours) was determined as 1500 nM. The same compound gave a concentration at 0.25 h in data set [1] (0.25 hours) of 1150 nM. In data set [1] (0.50 hours), this compound displayed a concentration at 0.5 h of 1110 nM. In data set [1] (1.00 hours), this compound gave a concentration at 1 h of 944 nM. Further, the concentration at 2 h in data set [1] (2.00 hours) is 754 nM. Besides, in data set [1] (4.00 hours), the concentration at 4 h came to 581 nM. This compound also came in with a concentration at 6 h in data set [1] (6.00 hours) of 374 nM. The compound also gave a concentration at 8 h in data set [1] (8.00 hours) of 475 nM. The compound also returned a concentration at 24 h in data set [1] (24.00 hours) of 23 nM. Also, the half-life in data set [1] (read-out: T ½ (converted)) is 4.09 h. For the same compound, the “IC50, inhibition of the interaction between PHD2 and a HIF peptide” value on PHD2 (general range statement, units within the value) is 0.0001 to 10 µM.
